Data on 29 compounds can be found in patent US6750228B1, “Aromatic sulfone hydroxamic acid metalloprotease inhibitor” (priority 1997, dated 2004).

What all share (assay): biochemical
One experiment concerns the target T1, MMP-2 (Homo sapiens, UniProt P08253).
T1 construct: made in house; provided by Dr. Gregory Goldberg, Washington University
T1 sequence (P08253 110-660): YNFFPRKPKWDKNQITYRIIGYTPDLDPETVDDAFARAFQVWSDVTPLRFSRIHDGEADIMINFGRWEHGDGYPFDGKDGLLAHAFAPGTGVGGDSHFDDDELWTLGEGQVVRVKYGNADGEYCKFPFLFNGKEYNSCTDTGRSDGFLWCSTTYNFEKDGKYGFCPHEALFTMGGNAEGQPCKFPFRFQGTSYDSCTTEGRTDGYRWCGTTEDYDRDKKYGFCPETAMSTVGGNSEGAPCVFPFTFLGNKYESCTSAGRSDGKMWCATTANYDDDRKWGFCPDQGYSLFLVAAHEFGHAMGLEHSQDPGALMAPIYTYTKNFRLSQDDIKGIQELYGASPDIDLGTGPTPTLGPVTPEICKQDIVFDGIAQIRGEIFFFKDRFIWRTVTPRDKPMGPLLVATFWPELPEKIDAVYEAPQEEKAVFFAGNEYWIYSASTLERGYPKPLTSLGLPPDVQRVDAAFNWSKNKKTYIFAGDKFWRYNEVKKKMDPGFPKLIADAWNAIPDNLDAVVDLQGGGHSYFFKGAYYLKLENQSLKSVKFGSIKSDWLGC
As to conditions: recombinant human MMP-2, MCA peptide substrate 4 μM, pH 7.5, room temperature; read-out: MMP-2 IC50. The method, boiled down:
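APMA- or trypsin-activated human MMPs (MMP-1 from transfected HT-1080 cells, MMP-2 from transfected cells) preincubated with inhibitor in 1% DMSO at room temperature, then 4 μM MCA-Pro-Leu-Gly-Leu-Dpa-Ala-Arg-NH2 added in Tris/NaCl/CaCl2 buffer pH 7.5. IC50 from fluorescence reduction versus inhibitor concentration.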

In another experiment the target is T2, MMP-13 (Homo sapiens, UniProt P45452).
T2 construct: made in house; host or cells: baculovirus / insect cells
As to conditions: recombinant human MMP-13, MCA peptide substrate 4 μM, pH 7.5, room temperature; read-out: MMP-13 IC50. The method, boiled down: (§1)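 Assay buffer 100 mM Tris-HCl, 100 mM NaCl, 10 mM CaCl2, pH 7.5. Activated MMP + inhibitor, 5 min RT; then methoxycoumarin peptide substrate, 4 μM final. Readout fluorescence; IC50 calculated.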

For the next experiment, the target named is T3, MMP-1 (Homo sapiens, UniProt P03956).
T3 construct: made in house; host or cells: transfected HT-1080 cells (provided by Dr. Harold Welgus, Washington University)
T3 sequence (P03956 100-469): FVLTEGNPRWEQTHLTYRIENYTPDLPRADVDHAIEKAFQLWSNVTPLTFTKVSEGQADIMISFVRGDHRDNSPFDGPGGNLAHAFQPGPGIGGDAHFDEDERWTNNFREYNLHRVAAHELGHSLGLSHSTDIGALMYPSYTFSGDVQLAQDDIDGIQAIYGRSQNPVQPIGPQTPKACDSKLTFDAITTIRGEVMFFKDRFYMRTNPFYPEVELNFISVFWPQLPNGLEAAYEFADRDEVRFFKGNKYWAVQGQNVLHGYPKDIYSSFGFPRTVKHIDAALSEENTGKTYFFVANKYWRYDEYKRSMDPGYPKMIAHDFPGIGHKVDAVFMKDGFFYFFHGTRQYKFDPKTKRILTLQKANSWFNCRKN
As to conditions: recombinant human MMP-1, MCA peptide substrate 4 μM, pH 7.5, room temperature; read-out: MMP-1 IC50. The method, boiled down: as §1

Broadly, the pIC50 is the negative decadic logarithm of the IC50, by convention in mol/L.

pIC50: −log10 of the molar value. Bounds are passed on as bounds.

Take `COCCN1CCN(CC(=O)N2CCC(C(=O)NO)(S(=O)(=O)c3ccc(N4CCC(C(=O)N5CC(C)CC(C)C5)CC4)cc3)CC2)CC1` (stereo not drawn) [Example 307]: the figures for the negative logarithm of the IC50 (pIC50) on MMP-2, on MMP-13 and on MMP-1 were less than 5.00, 7.40 and less than 5.00, respectively.

Turning to `COCCNCC(=O)N1CCC(C(=O)NO)(S(=O)(=O)c2ccc(N3CCC(C(=O)N4CC(C)CC(C)C4)CC3)cc2)CC1` (stereo not drawn) [Example 309], the pIC50 was less than 5.00 on MMP-2, 7.31 on MMP-13 and less than 5.00 at MMP-1.

Turning to `CC1CC(C)CN(C(=O)C2CCN(c3ccc(S(=O)(=O)C4(C(=O)NO)CCN(C(=O)Cn5cncn5)CC4)cc3)CC2)C1` (stereo not drawn) [Example 311], the negative logarithm of the IC50 (pIC50) on MMP-2 is less than 5.00; at MMP-13 it was 6.92; on MMP-1, less than 5.00.

In the case of `CONCC(=O)N1CCC(C(=O)NO)(S(=O)(=O)c2ccc(N3CCC(C(=O)N4CC(C)CC(C)C4)CC3)cc2)CC1` (stereo not drawn) [Example 312], the figures for the pIC50 on MMP-2, at MMP-13 and on MMP-1 were less than 5.00, 6.70 and less than 5.00, respectively.

Regarding `CCOC(=O)C1CCN(CC(=O)N2CCC(C(=O)NO)(S(=O)(=O)c3ccc(N4CCC(C(=O)N5CC(C)CC(C)C5)CC4)cc3)CC2)CC1` (stereo not drawn) [Example 313], the negative logarithm of the IC50 (pIC50) was less than 5.00 at MMP-2, 7.11 at MMP-13 and less than 5.00 at MMP-1.

`CC1CC(C)CN(C(=O)C2CCN(c3ccc(S(=O)(=O)C4(C(=O)NO)CCN(C(=O)CN5CCCC5=O)CC4)cc3)CC2)C1` (stereo not drawn) [Example 314]: the negative-log IC50 (pIC50) at MMP-2 is less than 5.00; at MMP-13 it was 7.19; on MMP-1, less than 5.00.

`CC1CC(C)CN(C(=O)C2CCN(c3ccc(S(=O)(=O)C4(C(=O)NO)CCN(C(=O)CN5CCC(C(=O)O)CC5)CC4)cc3)CC2)C1` (stereo not drawn) [Example 315]: the results for the pIC50 on MMP-2, on MMP-13 and on MMP-1 were less than 5.00, 6.38 and less than 5.00, respectively.

Turning to `O=C(CNCc1cccnc1)N1CCC(C(=O)NO)(S(=O)(=O)c2ccc(Oc3ccc(C(F)(F)F)cc3)cc2)CC1` [Example 316], the results for the pIC50 on MMP-2, on MMP-13 and at MMP-1 were 9.70, 9.40 and less than 5.00, respectively.

For `O=C(Cn1ccnc1)N1CCC(C(=O)NO)(S(=O)(=O)c2ccc(Oc3ccc(C(F)(F)F)cc3)cc2)CC1` [Example 317], the pIC50 is 9.40 on MMP-2, 8.85 at MMP-13 and less than 5.00 on MMP-1.

In the case of `O=C(CN1CCCCC1)N1CCC(C(=O)NO)(S(=O)(=O)c2ccc(Oc3ccc(C(F)(F)F)cc3)cc2)CC1` [Example 318], the pIC50 on MMP-2 was 10.00; on MMP-13 it was 9.52; on MMP-1, less than 5.00.

As to `O=C(CN1CCOCC1)N1CCC(C(=O)NO)(S(=O)(=O)c2ccc(Oc3ccc(C(F)(F)F)cc3)cc2)CC1` [Example 319], the figures for the pIC50 on MMP-2, on MMP-13 and on MMP-1 were 9.70, 9.30 and less than 5.00, respectively.

For the compound `O=C(CNCc1ccccn1)N1CCC(C(=O)NO)(S(=O)(=O)c2ccc(Oc3ccc(C(F)(F)F)cc3)cc2)CC1` [Example 320], the results for the pIC50 on MMP-2, at MMP-13 and on MMP-1 were 8.40, 7.92 and less than 5.00, respectively.

As for `O=C(CNCCO)N1CCC(C(=O)NO)(S(=O)(=O)c2ccc(Oc3ccc(C(F)(F)F)cc3)cc2)CC1` [Example 321], the pIC50 is 9.52 on MMP-2, 9.30 at MMP-13 and less than 5.00 on MMP-1.

On to `O=C(CNCC(F)(F)F)N1CCC(C(=O)NO)(S(=O)(=O)c2ccc(Oc3ccc(C(F)(F)F)cc3)cc2)CC1` [Example 322], for which the pIC50 is 9.52 at MMP-2, 9.52 on MMP-13 and less than 5.00 at MMP-1.

As for `CN(C)CCN(C)CC(=O)N1CCC(C(=O)NO)(S(=O)(=O)c2ccc(Oc3ccc(C(F)(F)F)cc3)cc2)CC1` [Example 323], the pIC50 on MMP-2 is 9.40; at MMP-13 it was 8.89; on MMP-1, less than 5.00.

As to `CN1CCN(CC(=O)N2CCC(C(=O)NO)(S(=O)(=O)c3ccc(Oc4ccc(C(F)(F)F)cc4)cc3)CC2)CC1` [Example 324], the results for the pIC50 at MMP-2, on MMP-13 and at MMP-1 were 9.40, 9.15 and less than 5.00, respectively.

As to `O=C(CNCc1ccncc1)N1CCC(C(=O)NO)(S(=O)(=O)c2ccc(Oc3ccc(C(F)(F)F)cc3)cc2)CC1` [Example 325], the values for the pIC50 at MMP-2, on MMP-13 and on MMP-1 were 9.70, 9.05 and less than 5.00, respectively.

For the compound `O=C(CN1CCCC1)N1CCC(C(=O)NO)(S(=O)(=O)c2ccc(Oc3ccc(C(F)(F)F)cc3)cc2)CC1` [Example 326], the pIC50 on MMP-2 was 9.35; at MMP-13, 9.22; on MMP-1, less than 5.00.

Turning to `COCCN(CCOC)CC(=O)N1CCC(C(=O)NO)(S(=O)(=O)c2ccc(Oc3ccc(C(F)(F)F)cc3)cc2)CC1` [Example 327], the pIC50 on MMP-2 was 9.52; on MMP-13, 9.05; at MMP-1, less than 5.00.

In the case of `O=C(CN1CCNCC1)N1CCC(C(=O)NO)(S(=O)(=O)c2ccc(Oc3ccc(C(F)(F)F)cc3)cc2)CC1` [Example 328], the pIC50 on MMP-2 was 9.40; on MMP-13, 9.46; on MMP-1, less than 5.00.

On to `CCN(CC(=O)N1CCC(C(=O)NO)(S(=O)(=O)c2ccc(Oc3ccc(C(F)(F)F)cc3)cc2)CC1)Cc1ccncc1` [Example 329], for which the results for the pIC50 on MMP-2, at MMP-13 and at MMP-1 were 9.40, 9.05 and less than 5.00, respectively.

For the compound `COCCN1CCN(CC(=O)N2CCC(C(=O)NO)(S(=O)(=O)c3ccc(Oc4ccc(C(F)(F)F)cc4)cc3)CC2)CC1` [Example 330], the negative logarithm of the IC50 (pIC50) was 9.15 at MMP-2, 9.30 on MMP-13 and less than 5.00 on MMP-1.

Regarding `CCCN(CC(=O)N1CCC(C(=O)NO)(S(=O)(=O)c2ccc(Oc3ccc(C(F)(F)F)cc3)cc2)CC1)CC1CC1` [Example 331], the negative-log IC50 (pIC50) on MMP-2 was 9.70; at MMP-13 it was 9.15; on MMP-1, less than 5.00.

Consider `COCCNCC(=O)N1CCC(C(=O)NO)(S(=O)(=O)c2ccc(Oc3ccc(C(F)(F)F)cc3)cc2)CC1` [Example 332], for which the pIC50 at MMP-2 is 9.40; at MMP-13, 8.68; at MMP-1, less than 5.00.

`O=C(CCCCNCc1cccnc1)N1CCC(C(=O)NO)(S(=O)(=O)c2ccc(Oc3ccc(C(F)(F)F)cc3)cc2)CC1` [Example 333]: the negative logarithm of the IC50 (pIC50) is 9.70 on MMP-2, 9.10 on MMP-13 and less than 5.00 on MMP-1.

For `O=C(CCCCN1CCCCC1)N1CCC(C(=O)NO)(S(=O)(=O)c2ccc(Oc3ccc(C(F)(F)F)cc3)cc2)CC1` [Example 334], the pIC50 on MMP-2 was 9.52; at MMP-13 it was 9.15; at MMP-1, less than 5.00.

In the case of `O=C(CCCCN1CCOCC1)N1CCC(C(=O)NO)(S(=O)(=O)c2ccc(Oc3ccc(C(F)(F)F)cc3)cc2)CC1` [Example 335], the values for the negative-log IC50 (pIC50) on MMP-2, at MMP-13 and on MMP-1 were 9.82, 9.05 and less than 5.00, respectively.

Turning to `O=C(CCCCNCc1ccccn1)N1CCC(C(=O)NO)(S(=O)(=O)c2ccc(Oc3ccc(C(F)(F)F)cc3)cc2)CC1` [Example 336], the negative-log IC50 (pIC50) at MMP-2 was greater than 10.00; at MMP-13, 9.00; at MMP-1 it was less than 5.00.

As to `O=C(CCCCNCCO)N1CCC(C(=O)NO)(S(=O)(=O)c2ccc(Oc3ccc(C(F)(F)F)cc3)cc2)CC1` [Example 337], the pIC50 at MMP-2 is 9.70; on MMP-13, 8.57; at MMP-1, less than 5.00.
